Test results reported in patent publication US9079895B2, “Morpholino compounds, uses and methods” (University of Dundee, priority 2012, dated 2015).

Experiments:
hERG = hERG (Homo sapiens (Human), UniProt Q12809); assay: hERG assay (PatchXpress patch clamp); type: cell-based
Experimental: 2. hERG Assay hERG activity was assayed by the patch clamp method on a PatchXpress platform and by FluxOR T1+ assays.

[1] = Metabolic stability assay (in vitro), mouse hepatic microsomes; type: in vitro ADME; conditions: mouse liver microsomes, 0.5 μM test compound
Experimental: 3. Metabolic Stability Assay (In Vitro)
Metabolic stability was assessed, generating the in vitro intrinsic clearance (Cli) following incubation of test compound with mouse hepatic microsomes. The assay was performed as previously described (Ruda et al. (2010), “Aryl Phosphoramidates of 5-phosho erythronohydroxamic acid, a new class of potent trypanocidal agents”, J. Med. Chem. 53, pp 6071-6078).
Briefly, each test compound (0.5 μM) was incubated with pooled female mouse liver microsomes (Tebu-Bio, UK; 0.5 mg/ml 50 mM potassium phosphate buffer, pH7.4) and the reaction started with addition of excess NADPH (8 mg/ml 50 mM potassium phosphate buffer, pH7.4) Immediately, at time zero, then at 3, 6, 9, 15 and 30 minutes an aliquot (50 μl) of the incubation mixture was removed and mixed with acetonitrile (100 μl) to stop the reaction. Internal standard was added to all samples. […]
XLfit (IDBS, UK) was used to calculate the exponential decay and consequently the rate constant (k) from the ratio of peak area of test compound to internal standard at each timepoint. The rate of intrinsic clearance (CLi) of each compound was then calculated using the following equation (1): CLi(ml/min/g liver)=k×V×Microsomal protein yield (1) where V (ml/mg protein) is the incubation volume/mg protein added and microsomal protein yield is taken as 52.5 mg protein/g liver. […]

hERG, sequence (Q12809 whole entry): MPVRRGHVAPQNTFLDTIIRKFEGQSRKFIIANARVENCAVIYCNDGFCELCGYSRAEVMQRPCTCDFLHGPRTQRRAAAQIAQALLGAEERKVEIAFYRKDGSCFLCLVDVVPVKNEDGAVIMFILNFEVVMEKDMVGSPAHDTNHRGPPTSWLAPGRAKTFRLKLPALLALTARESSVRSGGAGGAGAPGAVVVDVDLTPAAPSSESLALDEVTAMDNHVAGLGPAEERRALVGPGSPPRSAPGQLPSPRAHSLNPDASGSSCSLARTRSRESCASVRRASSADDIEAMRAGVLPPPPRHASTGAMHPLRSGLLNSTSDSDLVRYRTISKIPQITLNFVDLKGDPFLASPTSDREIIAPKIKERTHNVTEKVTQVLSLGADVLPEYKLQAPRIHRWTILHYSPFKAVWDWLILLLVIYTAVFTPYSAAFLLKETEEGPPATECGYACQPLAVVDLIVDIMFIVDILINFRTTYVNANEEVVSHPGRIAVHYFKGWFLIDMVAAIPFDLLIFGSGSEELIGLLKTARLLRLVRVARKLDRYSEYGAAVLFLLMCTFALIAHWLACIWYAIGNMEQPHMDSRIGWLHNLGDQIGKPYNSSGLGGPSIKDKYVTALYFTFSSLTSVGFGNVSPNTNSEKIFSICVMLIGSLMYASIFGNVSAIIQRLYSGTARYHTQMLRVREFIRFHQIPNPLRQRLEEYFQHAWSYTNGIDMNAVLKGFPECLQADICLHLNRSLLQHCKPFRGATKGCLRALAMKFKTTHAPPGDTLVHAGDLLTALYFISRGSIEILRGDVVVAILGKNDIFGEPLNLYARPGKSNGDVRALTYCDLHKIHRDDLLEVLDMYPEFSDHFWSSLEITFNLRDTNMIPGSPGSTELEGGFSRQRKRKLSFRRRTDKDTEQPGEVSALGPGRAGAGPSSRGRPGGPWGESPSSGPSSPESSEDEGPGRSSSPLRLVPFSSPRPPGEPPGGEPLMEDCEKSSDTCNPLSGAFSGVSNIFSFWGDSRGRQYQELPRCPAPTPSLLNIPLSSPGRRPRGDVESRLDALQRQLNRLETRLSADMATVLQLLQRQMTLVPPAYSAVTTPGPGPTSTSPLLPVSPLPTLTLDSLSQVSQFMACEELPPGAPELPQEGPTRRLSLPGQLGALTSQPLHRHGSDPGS

| Structure (SMILES) | hERG inhibition pEC50 (hERG) | mouse hepatic microsomal Cli (intrinsic clearance) [1] | EC50 (hERG; read-out: hERG inhibition pEC50 (converted)) |
| --- | --- | --- | --- |
| Clc1cncc(OC[C@@H]2CN(CCN3CCc4ccccc43)CCO2)c1 [Compound 27s, (S)-2-(((5-Chloropyridin-3-yl)oxy)methyl)-4-(2-(indolin-1-yl)ethyl)morpholine] | 5.51+/−0.13 | 25 mL/min/g |  |
| c1cncc(OC[C@@H]2CN(CCN3CCc4ccccc43)CCO2)c1 [Compound 21s, (S)-4-(2-(Indolin-1-yl)ethyl)-2-((pyridin-3-yloxy)methyl)morpholine] |  |  | 1510 nM |
